# Peptide text beside a SMILES is read from it.
# Assays:
# Type in all cases: binding
# [1] = biological target: monoclonal anti-hcTn I antibody [MF4] (ab38210 from Abcam); experiment: ITEM-FOUR: nanoESI-MS gas-phase dissociation of antibody-peptide immune complexes; conditions: for KD m0g#: apparent gas-phase dissociation constant, unitless number; for KD m0g# / kD m0g#: mean charge state, extrapolated to no excess energy; for kD m0g#: apparent gas-phase dissociation rate constant; for ΔGm0g# / ΔHm0g# / TambΔSm0g#: apparent, gas-phase immune complex dissociation; for TambΔSm0g#: Tamb 298 K; for binder group by ITEM-FOUR: grouping by ΔHm0g# and binding behaviour in the gas phase; for Initial [%] (immune complex amount at the lowest applied ∆CV): normalized educt ion intensity at ∆CV 2 V; for Initial [%] (immune complex amount at the lowest applied ∆CV) / Final [%] (immune complex amount at the highest applied ∆CV): antibody:peptide 1:2.2, 200 mM ammonium acetate pH 6.7, averaged from all measurements; for Final [%] (immune complex amount at the highest applied ∆CV): normalized educt ion intensity at ∆CV 80 V; for Slope: slope of tangent along steep part of Boltzmann curve
# Method: Starting materials and antibody-peptide complex-containing solutions were prepared as previously described. In brief, an aliquot of 25 µL (50 µg) of the monoclonal anti-hcTn I antibody [MF4] (ab38210 from Abcam, Cambridge, United Kingdom) was placed on a 10K centrifugal filter device (Merck Millipore, Carrigtwohill, Ireland) with 400 µL 200 mM ammonium acetate, pH 6.7. After centrifugation at 13,000 rpm for 7 min in an Eppendorf centrifuge (MiniSpin, Eppendorf, Hamburg, Germany), the flow through was discarded and the filter was filled-up with 450 µL 200 mM ammonium acetate, pH 6.7. This centrifugation/discarding/refilling step was repeated eight times. Afterwards, the filter was placed upside down in a new tube and centrifuged for 5 min at 4500 rpm. Approximately 50 µL of antibody solution were collected (solution 1). […] Synthesized hcTn I peptides (Table 1) were purchased as lyophilized powders (peptides and elephants, Hennigsdorf, Germany) and dissolved in 200 mM ammonium acetate, pH 6.7, to obtain peptide concentrations of ca. 2.0 mg/mL, each. The actual peptide concentrations of individual peptide solutions were determined using the Qubit^TM 2.0 Fluorometer assay. Afterwards, all peptide solutions were diluted 1:100 with 200 mM ammonium acetate, pH 6.7 (solution 2). To obtain immune-complex-containing mixtures, the antibody solution (solution 1) and the peptide solution (solution 2) were mixed to obtain final molar antibody-peptide ratios of 1:2.2 (solution 3). Typically, 4 µL of antibody solution were mixed with the appropriate volume (typically 1–2 µL) of the individual peptide solution. Solutions 3 were incubated at room temperature for at least 1 h.
# For each ITEM-FOUR examination, 3 µL of the peptide, antibody, or immune complex-containing solution were loaded into nanoESI capillaries that were pulled and gold coated in house. NanoESI-MS measurements were performed with a Synapt G2-S mass spectrometer (Waters MS-Technologies, Manchester, United Kingdom) with the following settings for ITEM-FOUR measurements: capillary voltage, 1.8 kV; source temperature, 40 °C; source offset voltage, 110 V; sample cone voltage, 110 V; cone gas flow, 100 L/h; trap gas flow, 8.0 mL/min; transfer collision cell voltage, 2 V. Measurements were acquired in positive-ion resolution mode, applying a mass window of m/z 200–8000. This mass range was calibrated using 1 mg/mL sodium iodide dissolved in isopropanol/water (50:50, v/v). The quadrupole analyzer was used with the following settings: M1 = 4000, dwell time, and ramp time 25%; M2 = 5000, dwell time, and ramp time 25%; and M3 = 6000 to block transmission of lower molecular weight ions. The first collision cell (TRAP) was used to dissociate antibody-peptide complexes by increasing the collision cell voltage difference (∆CV) in a stepwise manner every 60 s. The collision cell voltage difference steps were: 2, 4, 6, 8, 12, 16, 20, 30, 40, 50, 60, 70, and 80 V. Measurements were repeated at least twice (up to seven times) per immune complex, generating a total of 32 measurement series. The mass spectrometry proteomics data have been deposited to the ProteomeXchange Consortium via the PRIDE [33] partner repository with the dataset identifier PXD038365.
# MassLynx version 4.1 (Waters MS-Technologies) was used for data analysis as described previously. First, the scans of each ∆CV setting encompassing 60 s of recording were combined to generate an average mass spectrum for each ∆CV step. Next, the mass spectra were smoothened in 20 cycles with a window of 10 using the Savitzky-Golay algorithm. The ion intensities of all molecular species and their corresponding charge states (complex ions, complex-released peptides, and antibody fragments) were read after smoothing. A bell-shaped Gaussian curve of the intensities of each molecular species was calculated using Origin 2017 (32-bit) SR2 (OriginLab Corporation, Northampton, MA, USA). […]
# [2] = biological target: monoclonal anti-hcTn I antibody [MF4] (ab38210 from Abcam); experiment: Isothermal titration calorimetry of immune complex formation in solution; conditions: for ∆H / ∆G: immune complex formation in solution; for ∆H: 298 K; for ∆G: calculated from KA (van´t Hoff equation); for T∆S: T = 298 K, calculated with Gibbs-Helmholtz equation
# Method: The monoclonal anti-hcTn I antibody [MF4] (ab38210 from Abcam, Cambridge, United Kingdom) was stored in PBS (0.138 M NaCl; 0.0027 M KCl, pH 7.4 from Sigma-Aldrich, St. Louis, MO, US), pH 7.4, and was used as purchased. The hcTn I peptides 1, 2, 4, 6, 7, and 8 were dissolved in PBS and stock solutions with 0.32 to 0.93 mg/mL peptide concentrations were prepared.
# Isothermal titration calorimetry measurements were performed with an Affinity ITC instrument (Waters|TA Instruments, New Castle, DE, USA) at T = 298 K equipped with a 190 µL sample cell and a matching reference cell, AccuShot for precise delivery of the titrant, and a Flex Spin for slow speed stirring (125 rpm), efficient mixing, and highest sensitivity. The anti-hcTn I antibody was placed in the sample cell at 1.95 µM (in PBS). The hcTn I peptides, each at 40 µM (in PBS), were automatically titrated to the antibody in 18–20 steps (2 µL per step). The time between titrations was 200 s to establish a baseline between each injection for accurate heat determination and modeling.
# The integrated areas under each injection peak (heat over time) were plotted against the active species’ respective molar ratios ranging from 1:0.4 to 1:6.6. An independent binding model was chosen to fit all the data and directly determine the enthalpy (ΔH) and association constant (KA). Gibbs free energy (ΔG) is calculated from the KA using the van´t Hoff equation. The change in entropy term (ΔS) is calculated applying the Gibbs-Helmholtz equation.
# [3] = test system: anti-Histag antibody; experiment: nanoESI-MS of peptide mixed with unrelated antibody (specificity control); conditions: binary mixture, 200 mM ammonium acetate pH 6.7
# Method: Figure S15. Nano-ESI mass spectra of Troponin I peptide 7 (ENREVGDWPKNIDAL) upon incubation with anti-Histag […]
# ion signal) and (b) with blocked transmission of low mass ions (< 4800 ) and collision cell voltage differences of 2V and (c) with blocked transmission of low mass ion (< 4800) and collision cell voltage differences of 80V. Charge states are given for […]
# Antibody fragment ion signals are visible between m/z 1200 and 2300 in (c). Solvent: 200 mM ammonium acetate, pH 6.7.
# (1 picture or pasted object on this page, not shown here)
# [4] = ITC in PBS pH 7.4, 298 K, antibody 1.95 µM in cell, peptide 40 µM titrant, independent binding model, unitless number
# [5] = ITC in PBS pH 7.4, 298 K, independent binding model, unitless number
Compound,KD m0g# [1],kD m0g# [1] [s⁻¹],ΔGm0g# [1] [kcal/mol],ΔHm0g# [1] [kcal/mol],TambΔSm0g# [1] [kcal/mol],binder group by ITEM-FOUR [1],Initial [%] (immune complex amount at the lowest applied ∆CV) [1],Final [%] (immune complex amount at the highest applied ∆CV) [1],Slope [1] [%/V],"Kd [2, 4] [nM]","KA [2, 5]",∆H ([2]; ITC),∆G ([2]; ITC),T∆S ([2]; ITC),complex formation with anti-Histag antibody (in words) [3],"binding to anti-hcTn I antibody (in words) ([1]; ITEM analysis of peptide-antibody mixture, molar ratio 2.2:1)","KD [2, 4]","binding in solution (in words) ([2]; ITC, PBS pH 7.4, 298 K)"
CC[C@H](C)[C@H](NC(=O)[C@H](CC(N)=O)NC(=O)[C@H](CCCCN)NC(=O)[C@H](CC(C)C)NC(=O)[C@H](Cc1c[nH]c2ccccc12)NC(=O)[C@H](CC(=O)O)NC(=O)CNC(=O)[C@@H](NC(=O)[C@H](CCC(=O)O)NC(=O)[C@H](CCCNC(=N)N)NC(=O)[C@H](CC(N)=O)NC(=O)[C@@H](N)CCC(=O)O)C(C)C)C(=O)N[C@@H](CC(=O)O)C(=O)N[C@@H](C)C(=O)N[C@@H](CC(C)C)C(=O)O [Peptide 4] (H-ENREVGDWLKNIDAL-OH),4.77 × 10^−12 Ø,7.37e+12,15.44,-0.538,-15.97,strong binders (“strong binders” (group II) with ΔHm0g# values below −2 kJ/mol),41.60,23.12,−0.35,243,4.12 × 10^6 Ø,-12.45 kcal/mol,-9.027 kcal/mol,-3.425 kcal/mol,–,–,–,–
CC[C@H](C)[C@H](NC(=O)[C@H](CC(N)=O)NC(=O)[C@H](CCCCN)NC(=O)[C@H](CCCNC(=N)N)NC(=O)[C@H](Cc1c[nH]c2ccccc12)NC(=O)CNC(=O)CNC(=O)[C@@H](NC(=O)[C@H](CCC(=O)O)NC(=O)[C@H](CCCNC(=N)N)NC(=O)[C@H](CC(N)=O)NC(=O)[C@@H](N)CCC(=O)O)C(C)C)C(=O)N[C@@H](CC(=O)O)C(=O)N[C@@H](C)C(=O)N[C@@H](CC(C)C)C(=O)O [Peptide 6] (H-ENREVGGWRKNIDAL-OH),4.62 × 10^−12 Ø,2.9e+12,15.46,-0.442,-15.89,"very strong binders (Peptides 1, 2, and 6 are “very strong binders” (group I) as their ΔHm0g# values of the gas-phase dissociation reaction are above −2 kJ/mol)",58.83,23.33,−0.75,411,2.43 × 10^6 Ø,-10.85 kcal/mol,-8.721 kcal/mol,-2.13 kcal/mol,–,–,–,–
ENREVGDWPKNIDAL [Peptide 7],–,–,–,–,–,weak and unorthodox binder,15.37,5.90,–,–,n.b.,n.b.,n.b.,n.b.,no complex formation was detected,bound by the paratope in an unorthodox fashion,n.b.,did not bind in solution
